Among the data in ChEMBL document CHEMBL5442219 are inhibition values, retold here.

Common to all, as to details: Compound concentration 10 µM
The target in assay [1] is T1, 5-hydroxytryptamine receptor 1A (Homo sapiens) (UniProt P08908).
T1 sequence (whole entry): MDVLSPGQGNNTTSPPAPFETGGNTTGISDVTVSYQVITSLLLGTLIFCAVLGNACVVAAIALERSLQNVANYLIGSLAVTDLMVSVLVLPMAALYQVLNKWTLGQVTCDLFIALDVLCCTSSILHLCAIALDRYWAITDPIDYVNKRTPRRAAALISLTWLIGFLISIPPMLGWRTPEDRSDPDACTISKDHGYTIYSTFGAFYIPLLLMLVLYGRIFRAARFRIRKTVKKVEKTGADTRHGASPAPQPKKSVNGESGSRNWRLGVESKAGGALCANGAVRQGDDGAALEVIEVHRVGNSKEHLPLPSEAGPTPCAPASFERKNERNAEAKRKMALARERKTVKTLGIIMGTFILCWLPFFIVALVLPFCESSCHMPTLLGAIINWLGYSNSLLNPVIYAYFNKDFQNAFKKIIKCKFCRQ

For assay [2], the target named is Histamine H4 receptor (Homo sapiens) (UniProt Q9H3N8).
Histamine H4 receptor (Homo sapiens), sequence (Q9H3N8 whole entry): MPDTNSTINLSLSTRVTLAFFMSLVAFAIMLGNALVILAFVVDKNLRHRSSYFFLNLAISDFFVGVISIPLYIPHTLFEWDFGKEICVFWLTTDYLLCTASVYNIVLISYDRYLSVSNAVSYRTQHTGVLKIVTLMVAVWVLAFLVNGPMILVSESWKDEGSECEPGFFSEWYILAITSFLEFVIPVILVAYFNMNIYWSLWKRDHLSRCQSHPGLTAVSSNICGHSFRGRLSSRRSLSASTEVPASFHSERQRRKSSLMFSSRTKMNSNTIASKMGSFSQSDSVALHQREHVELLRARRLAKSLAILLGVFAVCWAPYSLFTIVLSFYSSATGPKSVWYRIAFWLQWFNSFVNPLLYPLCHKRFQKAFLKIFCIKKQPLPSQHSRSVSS
Assay [3] addresses 5-hydroxytryptamine receptor 1E (Homo sapiens) (UniProt P28566).
Assay [4] deals with T2, 5-hydroxytryptamine receptor 2C (Homo sapiens) (UniProt P28335).
T2 sequence (whole entry): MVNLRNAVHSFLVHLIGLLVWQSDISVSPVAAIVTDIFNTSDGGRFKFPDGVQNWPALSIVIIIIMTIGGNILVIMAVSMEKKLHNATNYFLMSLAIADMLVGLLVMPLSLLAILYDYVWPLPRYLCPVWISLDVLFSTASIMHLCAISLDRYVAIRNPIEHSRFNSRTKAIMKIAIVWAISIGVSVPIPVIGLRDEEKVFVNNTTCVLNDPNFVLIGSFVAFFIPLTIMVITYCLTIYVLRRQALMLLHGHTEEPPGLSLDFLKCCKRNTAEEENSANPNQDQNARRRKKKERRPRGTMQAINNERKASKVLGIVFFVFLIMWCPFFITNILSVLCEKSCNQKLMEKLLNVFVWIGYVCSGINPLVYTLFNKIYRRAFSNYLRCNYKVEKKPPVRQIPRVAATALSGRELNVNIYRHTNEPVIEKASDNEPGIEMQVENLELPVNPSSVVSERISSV

For assay [5], the target named is T3, Alpha-2C adrenergic receptor (Homo sapiens) (UniProt P18825).
T3 sequence (whole entry): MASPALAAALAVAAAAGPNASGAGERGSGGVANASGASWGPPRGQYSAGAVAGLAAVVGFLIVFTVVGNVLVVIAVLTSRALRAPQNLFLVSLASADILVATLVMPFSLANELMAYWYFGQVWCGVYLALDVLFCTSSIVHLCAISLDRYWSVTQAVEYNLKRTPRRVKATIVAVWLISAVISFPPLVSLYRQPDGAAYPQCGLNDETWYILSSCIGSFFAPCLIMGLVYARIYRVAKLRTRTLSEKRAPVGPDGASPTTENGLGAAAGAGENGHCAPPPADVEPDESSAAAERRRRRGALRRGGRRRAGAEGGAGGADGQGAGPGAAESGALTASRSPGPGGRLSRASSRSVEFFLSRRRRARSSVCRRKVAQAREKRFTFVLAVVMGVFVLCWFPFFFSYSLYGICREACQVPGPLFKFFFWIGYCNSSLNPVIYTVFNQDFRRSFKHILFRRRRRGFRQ

The target of assay [6] is 5-hydroxytryptamine receptor 2A (Homo sapiens) (UniProt P28223).
5-hydroxytryptamine receptor 2A (Homo sapiens), sequence (P28223 whole entry): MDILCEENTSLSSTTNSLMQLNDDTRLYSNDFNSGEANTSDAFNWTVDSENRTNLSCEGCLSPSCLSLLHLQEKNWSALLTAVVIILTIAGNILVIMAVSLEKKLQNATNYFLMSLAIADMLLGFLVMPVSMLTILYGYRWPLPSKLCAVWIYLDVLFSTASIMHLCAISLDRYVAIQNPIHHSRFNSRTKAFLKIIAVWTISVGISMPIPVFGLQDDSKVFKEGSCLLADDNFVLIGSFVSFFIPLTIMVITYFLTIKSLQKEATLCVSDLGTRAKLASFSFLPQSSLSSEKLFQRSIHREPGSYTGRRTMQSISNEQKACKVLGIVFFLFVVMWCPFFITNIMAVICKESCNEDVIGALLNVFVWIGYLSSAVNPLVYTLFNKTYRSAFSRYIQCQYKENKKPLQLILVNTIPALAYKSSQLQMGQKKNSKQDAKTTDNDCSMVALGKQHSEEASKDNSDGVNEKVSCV
The target of assay [7] is Beta-2 adrenergic receptor (Homo sapiens) (UniProt P07550).
Beta-2 adrenergic receptor (Homo sapiens), sequence (P07550 whole entry, looked up): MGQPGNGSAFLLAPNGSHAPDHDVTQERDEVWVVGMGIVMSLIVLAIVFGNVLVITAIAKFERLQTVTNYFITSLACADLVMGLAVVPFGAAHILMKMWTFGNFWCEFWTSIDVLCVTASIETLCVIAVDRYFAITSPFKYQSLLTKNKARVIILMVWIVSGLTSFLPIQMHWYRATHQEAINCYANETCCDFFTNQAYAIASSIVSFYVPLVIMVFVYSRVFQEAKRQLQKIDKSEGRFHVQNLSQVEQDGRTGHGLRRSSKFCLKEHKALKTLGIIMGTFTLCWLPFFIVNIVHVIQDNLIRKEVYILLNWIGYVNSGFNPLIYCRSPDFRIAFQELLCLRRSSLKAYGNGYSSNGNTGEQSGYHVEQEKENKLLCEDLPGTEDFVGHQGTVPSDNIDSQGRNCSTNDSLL
Assay [8] addresses T4, D(4) dopamine receptor (Homo sapiens) (UniProt P21917).
T4 sequence (whole entry): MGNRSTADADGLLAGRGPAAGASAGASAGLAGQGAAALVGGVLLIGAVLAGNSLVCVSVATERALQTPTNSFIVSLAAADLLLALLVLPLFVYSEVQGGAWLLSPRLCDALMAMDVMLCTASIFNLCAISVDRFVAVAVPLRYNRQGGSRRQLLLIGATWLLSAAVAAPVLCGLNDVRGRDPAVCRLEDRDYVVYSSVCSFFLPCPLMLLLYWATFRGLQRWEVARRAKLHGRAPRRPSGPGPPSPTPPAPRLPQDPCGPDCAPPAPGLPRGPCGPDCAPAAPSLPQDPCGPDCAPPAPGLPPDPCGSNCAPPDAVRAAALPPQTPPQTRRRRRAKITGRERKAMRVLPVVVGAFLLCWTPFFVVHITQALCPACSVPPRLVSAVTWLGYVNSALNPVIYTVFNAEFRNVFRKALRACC

In assay [9] the target is Histamine H1 receptor (Homo sapiens) (UniProt P35367).
Histamine H1 receptor (Homo sapiens), sequence (P35367 whole entry): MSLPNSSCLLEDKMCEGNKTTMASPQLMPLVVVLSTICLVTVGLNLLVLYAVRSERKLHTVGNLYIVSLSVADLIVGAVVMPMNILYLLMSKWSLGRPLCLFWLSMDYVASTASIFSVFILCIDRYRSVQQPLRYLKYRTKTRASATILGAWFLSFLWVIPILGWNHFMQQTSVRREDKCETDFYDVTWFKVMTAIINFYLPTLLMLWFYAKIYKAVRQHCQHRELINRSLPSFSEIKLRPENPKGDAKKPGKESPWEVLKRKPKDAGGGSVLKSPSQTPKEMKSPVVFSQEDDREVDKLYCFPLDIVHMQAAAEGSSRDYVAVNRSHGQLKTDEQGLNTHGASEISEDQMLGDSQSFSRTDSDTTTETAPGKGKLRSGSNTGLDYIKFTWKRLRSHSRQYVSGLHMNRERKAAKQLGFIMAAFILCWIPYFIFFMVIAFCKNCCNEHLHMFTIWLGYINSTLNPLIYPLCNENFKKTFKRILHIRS
Assay [10] has as its target Kappa-type opioid receptor (Homo sapiens) (UniProt P41145).
The target of assay [11] is D(3) dopamine receptor (Homo sapiens) (UniProt P35462).
D(3) dopamine receptor (Homo sapiens), sequence (P35462 whole entry): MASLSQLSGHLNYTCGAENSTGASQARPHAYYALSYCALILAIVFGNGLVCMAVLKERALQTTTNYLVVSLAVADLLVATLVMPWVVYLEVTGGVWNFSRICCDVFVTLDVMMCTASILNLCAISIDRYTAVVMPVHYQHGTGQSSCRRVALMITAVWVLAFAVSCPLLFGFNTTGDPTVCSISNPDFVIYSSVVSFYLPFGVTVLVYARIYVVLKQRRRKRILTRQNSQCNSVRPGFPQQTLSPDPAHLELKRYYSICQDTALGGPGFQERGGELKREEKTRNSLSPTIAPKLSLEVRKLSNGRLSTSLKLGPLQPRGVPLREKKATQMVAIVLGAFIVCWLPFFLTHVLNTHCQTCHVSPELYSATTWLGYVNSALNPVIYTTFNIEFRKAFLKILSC
Assay [12] has as its target 5-hydroxytryptamine receptor 2B (Homo sapiens) (UniProt P41595).
The target in assay [13] is T5, 5-hydroxytryptamine receptor 3A (Homo sapiens) (UniProt P46098).
T5 sequence (whole entry): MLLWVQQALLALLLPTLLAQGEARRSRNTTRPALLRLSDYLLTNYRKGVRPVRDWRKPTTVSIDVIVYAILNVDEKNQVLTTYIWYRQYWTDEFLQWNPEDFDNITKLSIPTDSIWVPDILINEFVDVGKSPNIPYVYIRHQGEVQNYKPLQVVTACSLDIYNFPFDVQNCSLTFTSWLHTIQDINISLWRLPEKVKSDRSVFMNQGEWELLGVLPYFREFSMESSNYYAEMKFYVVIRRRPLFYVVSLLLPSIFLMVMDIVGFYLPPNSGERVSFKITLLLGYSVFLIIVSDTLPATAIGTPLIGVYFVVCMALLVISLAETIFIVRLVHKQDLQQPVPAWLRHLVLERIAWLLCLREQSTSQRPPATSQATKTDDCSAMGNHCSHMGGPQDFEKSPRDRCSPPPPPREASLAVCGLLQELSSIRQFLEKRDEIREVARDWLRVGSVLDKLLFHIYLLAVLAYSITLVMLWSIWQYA

Assay [14] concerns the target Translocator protein (Homo sapiens) (UniProt P30536).
Assay [15] deals with Sigma intracellular receptor 2 (Homo sapiens) (UniProt Q5BJF2).
Sigma intracellular receptor 2 (Homo sapiens), sequence (Q5BJF2 whole entry): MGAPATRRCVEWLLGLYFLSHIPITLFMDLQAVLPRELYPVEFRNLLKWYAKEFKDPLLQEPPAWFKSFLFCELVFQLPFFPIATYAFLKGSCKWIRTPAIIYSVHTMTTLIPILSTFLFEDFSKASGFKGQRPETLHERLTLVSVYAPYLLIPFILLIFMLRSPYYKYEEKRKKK
In assay [16] the target is 5-hydroxytryptamine receptor 5A (Homo sapiens) (UniProt P47898).
5-hydroxytryptamine receptor 5A (Homo sapiens), sequence (P47898 whole entry): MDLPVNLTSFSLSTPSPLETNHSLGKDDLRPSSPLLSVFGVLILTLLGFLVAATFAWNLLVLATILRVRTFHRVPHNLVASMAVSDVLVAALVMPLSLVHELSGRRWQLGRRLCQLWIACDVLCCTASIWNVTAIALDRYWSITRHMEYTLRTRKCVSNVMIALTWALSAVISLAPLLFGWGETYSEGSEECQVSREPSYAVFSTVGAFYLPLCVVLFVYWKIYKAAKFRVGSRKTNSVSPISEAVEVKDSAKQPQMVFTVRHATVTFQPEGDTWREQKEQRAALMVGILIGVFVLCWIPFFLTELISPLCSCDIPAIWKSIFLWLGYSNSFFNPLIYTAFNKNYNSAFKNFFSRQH

Translocator protein (Homo sapiens), sequence (P30536 whole entry): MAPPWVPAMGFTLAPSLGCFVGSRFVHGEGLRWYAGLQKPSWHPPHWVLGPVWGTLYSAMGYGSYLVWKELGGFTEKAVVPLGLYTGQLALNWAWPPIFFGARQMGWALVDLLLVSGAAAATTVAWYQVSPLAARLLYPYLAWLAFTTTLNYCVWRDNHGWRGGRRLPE
5-hydroxytryptamine receptor 2B (Homo sapiens), sequence (P41595 whole entry): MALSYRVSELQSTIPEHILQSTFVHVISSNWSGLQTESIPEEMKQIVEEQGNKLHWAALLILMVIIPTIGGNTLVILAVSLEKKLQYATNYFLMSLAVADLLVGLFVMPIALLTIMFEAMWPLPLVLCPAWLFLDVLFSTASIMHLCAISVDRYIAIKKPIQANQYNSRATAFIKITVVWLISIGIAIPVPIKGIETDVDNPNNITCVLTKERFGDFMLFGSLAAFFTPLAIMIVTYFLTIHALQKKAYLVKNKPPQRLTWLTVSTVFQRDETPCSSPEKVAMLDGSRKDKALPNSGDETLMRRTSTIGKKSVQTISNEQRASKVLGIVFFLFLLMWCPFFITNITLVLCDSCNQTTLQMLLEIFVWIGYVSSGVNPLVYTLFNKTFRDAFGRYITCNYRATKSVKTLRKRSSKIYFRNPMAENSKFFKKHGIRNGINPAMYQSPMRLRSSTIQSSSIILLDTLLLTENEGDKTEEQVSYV
Kappa-type opioid receptor (Homo sapiens), sequence (P41145 whole entry): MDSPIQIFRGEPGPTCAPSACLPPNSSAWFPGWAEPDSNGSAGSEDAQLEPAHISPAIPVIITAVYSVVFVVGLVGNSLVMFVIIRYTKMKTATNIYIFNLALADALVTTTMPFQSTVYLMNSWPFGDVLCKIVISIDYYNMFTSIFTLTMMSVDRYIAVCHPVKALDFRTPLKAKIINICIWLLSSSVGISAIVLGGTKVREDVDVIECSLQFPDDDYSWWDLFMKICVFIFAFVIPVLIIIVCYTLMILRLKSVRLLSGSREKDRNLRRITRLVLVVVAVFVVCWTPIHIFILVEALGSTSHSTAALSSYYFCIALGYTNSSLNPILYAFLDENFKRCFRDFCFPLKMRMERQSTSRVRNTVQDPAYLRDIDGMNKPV
5-hydroxytryptamine receptor 1E (Homo sapiens), sequence (P28566 whole entry): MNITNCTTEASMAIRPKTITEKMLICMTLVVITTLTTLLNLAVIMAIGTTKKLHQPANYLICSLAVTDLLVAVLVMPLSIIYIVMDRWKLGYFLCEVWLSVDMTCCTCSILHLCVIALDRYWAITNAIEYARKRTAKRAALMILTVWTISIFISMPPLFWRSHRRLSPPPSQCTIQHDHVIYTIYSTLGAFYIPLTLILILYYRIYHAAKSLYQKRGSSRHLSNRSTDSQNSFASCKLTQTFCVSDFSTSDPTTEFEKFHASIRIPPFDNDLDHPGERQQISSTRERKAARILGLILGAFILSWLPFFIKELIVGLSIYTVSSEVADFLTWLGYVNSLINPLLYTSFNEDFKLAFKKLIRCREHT

Take `N#Cc1ccc(NC(=O)Nc2ccccc2Br)c2nn[nH]c12`: the inhibition in assay [1] is 6.16%; in assay [2], 25.3%; in [3], 4.87%; in [4], 26.9%; in assay [5], 4.08%; in assay [6], -5.61%. Besides, the inhibition in assay [7] is -2.94%; in assay [8] it was 13.3%; in assay [9], 0.77%; in [10], 25.6%; in assay [11], 43.3%; in [12] it was 33.9%. Besides, the inhibition in assay [13] is 4.92%; in [14] it was 53.9%.

In the case of `CCCn1c(=O)c2nc(C34CC5CC(CC3C5)C4)[nH]c2n(CCC)c1=O`, the inhibition in assay [1] was -4.72%; in assay [2], 6.77%; in assay [3], 14.2%; in assay [15], 39.6%; in assay [4], -0.12%; in assay [5] it was 9.01%. The inhibition in assay [6] is -7.63%; in [7] it was 4.88%; in assay [8], 1.06%; in assay [9], 8.71%; in [10], 4.62%; in assay [11], -4.54%. The inhibition in assay [12] is 43.5%; in [13] it was -9.26%; in [14], 25.5%.

On to `Cc1cc([C@@H](C)Nc2cccc(-c3cc(C)c(C(=O)N[C@@H](C)C(=O)O)c(C)c3)c2)ccc1Cl`, for which the inhibition in [1] is 3.66%; in [3], 5.92%; in assay [4], -0.82%; in assay [5] it was -1.32%; in assay [6] it was 5.15%; in assay [8], 31.4%. The inhibition in [9] is 2.32%; in assay [10], 0.51%; in assay [11], 58.6%; in assay [16] it was 11.6%; in assay [12], 54.5%; in assay [14], 62.7%.

As to `Cc1c(F)cccc1NC(=O)Nc1ccc(Cl)c(S(=O)(=O)[C@H]2CCCNC2)c1O`, the inhibition in [3] was -6.67%; in assay [4] it was -7.64%; in [5], -6.11%; in assay [6], -0.14%; in [7], 5.61%; in assay [8] it was 6.5%. The inhibition in [9] was 25.6%; in [10] it was -8.19%; in assay [11], 25.8%; in assay [16], 16.5%; in [12] it was 44.3%; in assay [14] it was 8.9%.

Turning to `CN(C)S(=O)(=O)c1ccc(NC(=S)N2CCC(C(O)(c3ccccc3)c3ccccc3)CC2)cc1`, the inhibition is 10.5% in [1]; -3.58% in assay [2]; 7.01% in [3]; 95.2% in assay [15]; 3.54% in assay [4]; 21.8% in assay [5]. Further, the inhibition in [6] was 11%; in assay [7] it was 71.8%; in assay [8] it was 8.69%; in [9] it was 6.41%; in [10], 12.3%; in [11], 21.5%. The results for the inhibition in assay [12], in assay [13] and in assay [14] were 23.4%, -8.86% and 75.4%, respectively.

On to `CNC[C@H](O)c1ccc(O)c(O)c1`, for which the inhibition in [1] is -3.44%; in assay [2], -7.99%; in assay [3], -5.3%; in assay [15] it was 12.3%; in assay [5] it was 66.7%; in [7] it was 34.2%. Moreover, the inhibition in assay [8] is 20.1%; in [11], 47.1%; in assay [16] it was -0.93%; in assay [12], 1.88%; in [14], -0.39%.

Regarding `CC1(C)SSC(C)(C)[C@@H](NC(=O)[C@@H](N)Cc2ccc(O)cc2)C(=O)NCC(=O)N[C@@H](Cc2ccccc2)C(=O)N[C@H]1C(=O)O`, the inhibition in assay [1] was 3.47%; in assay [2], -8.56%; in assay [3], 17.2%; in assay [15], 22.6%; in assay [5], -6.75%; in assay [6] it was 24.5%. Further, the inhibition in assay [7] was -0.03%; in assay [8], 49%; in assay [9], 3.33%; in assay [10], -4.89%; in assay [11], 0.23%; in assay [16] it was -9.01%. The inhibition in assay [12] was 24.7%.

On to `CCC[C@H](Oc1cc(C)c(-n2cc(C(F)(F)F)cn2)c(C)c1)c1ccc(C(=O)NCCC(=O)O)cc1`, for which the inhibition is -2.47% in [1]; 44% in assay [3]; 2.23% in assay [15]; -0.8% in assay [4]; 5.06% in assay [5]; 4.78% in [6]. The inhibition is -1.34% in [8]; 7.56% in assay [9]; 40.7% in [10]; 8.62% in assay [16]; 28.7% in assay [14].

`COc1cccc(-c2c(C)n(Cc3c(F)cccc3C(F)(F)F)c(=O)n(C[C@H](NCCCC(=O)O)c3ccccc3)c2=O)c1F`: the inhibition in assay [1] was -2.18%; in assay [3] it was 11.7%; in [4] it was 1.76%; in assay [5] it was -3.99%; in [6] it was -2.02%; in assay [8], 25.8%. Also, the inhibition in [9] was 9.07%; in assay [10], 52.1%; in [11] it was 21.6%; in assay [16] it was 35.8%; in assay [12], -6.96%; in assay [14] it was 15.8%.
